In patent US20230026869A1, “CRYSTAL FORM OF NUCLEOPROTEIN INHIBITOR AND USE THEREOF” (CHIA TAI TIANQING PHARMACEUTICAL GROUP CO., LTD., priority 2019, published 2023):

Assays:
[1] = Metabolic stability in human liver microsomes; format: in vitro ADME
Protocol: Objective: The metabolic stability of the test compound in CD-1 mice and human liver microsomes was determined. […]

[2] = Liver-to-blood ratio in Balb/c mice orally administered with the test compound; format: in vivo; conditions: Balb/c female mice, oral administration, 3 mg/kg
Protocol: Experiment on the Liver-to-Blood Ratio in Balb/c Mice Orally Administered with the Test Compound The compound of formula (I) was mixed with an aqueous solution containing […] polyethylene glycol-15 hydroxystearate, and the mixture was vortexed and sonicated to prepare a 0.3 mg/mL clear solution for later use. Balb/c female mice aged 7 to 10 weeks were orally administered with the candidate compound solution at a dose of 3 mg/kg. Whole blood at a certain time point was collected and plasma was prepared. Liver tissues at the corresponding time point were collected to prepare a tissue homogenate. Drug concentration was analyzed by LC-MS/MS and pharmacokinetic parameters were calculated with Phoenix WinNonlin software.

For `CC1(NC(=O)C(=O)c2c(Cl)c(C(=O)Nc3cc(F)c(F)c(F)c3)c3n2CCC3)CCC(CC(=O)O)CC1` (stereo not drawn) [Compound of formula (I)], the half-life at 1 μM ([1]; Human liver microsomes, 1 μM compound, 0.5 mg/mL) was over 2.42 h, the CLint scaled at 1 μM ([1]; human liver microsomes) was under 8.6 mL/min/kg and the microsomal CLint at 1 μM ([1]; human, microsomes) was under 9.6 µL/min/mg. The AUC0-last ([2]; Liver) was 86036 nmol·h/kg, the Kp ([2]; mouse, liver / plasma, read-out: AUC ratio (L/P) Liver/plasma exposure ratio) was 24.7 and the AUC(0-t) ([2]; mouse, Plasma) was 3.48 µM·h.
